Laboratory results published in ChEMBL document CHEMBL1201862, “PubChem BioAssay data set” (2004).
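Step 1: Grow cells in 96-well plates. Step 2: Expose to compound for 48 hours at 5 concentrations. Step 3: Interpolate endpoints linearly; if unreached, use highest concentration. The concentration for 50% growth inhibition is given as GI50.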 The source made the active and inactive calls. Cut-off read from the data, not from the text of the source: active = GI50 up to about 1.1 µM and inactive = higher.

How the values were obtained:
Experiment in all cases: growth of human tumour cells (NCI), 48 h
KM12 = system: KM12
U-251 = system: U-251
M14 = system: M14
SNB-19 = system: SNB-19
786-0 = system: 786-0
OVCAR-3 = system: OVCAR-3
Hs-578T = system: Hs-578T
HOP-92 = system: HOP-92
IGROV-1 = system: IGROV-1
DU-145 = system: DU-145
SK-MEL-2 = system: SK-MEL-2
BT-549 = system: BT-549
COLO 205 = system: COLO 205
SF-295 = system: SF-295
SK-MEL-5 = system: SK-MEL-5
RXF 393 = system: RXF 393
CAKI-1 = system: CAKI-1
SNB-75 = system: SNB-75
SR = system: SR

Row | Structure (SMILES) | GI50 (KM12) | GI50 (U-251) | GI50 (M14) | GI50 (SNB-19) | GI50 (786-0) | GI50 (OVCAR-3) | GI50 (Hs-578T) | GI50 (HOP-92) | GI50 (IGROV-1) | GI50 (DU-145) | GI50 (SK-MEL-2) | GI50 (BT-549) | GI50 (COLO 205) | GI50 (SF-295) | GI50 (SK-MEL-5) | GI50 (RXF 393) | GI50 (CAKI-1) | GI50 (SNB-75) | GI50 (SR)
1 | Cc1[nH]c(C)c(CN(C)C)c1CN(C)C | > 100 µM (inactive) | > 100 µM (inactive) | > 100 µM (inactive) | > 100 µM (inactive) | > 100 µM (inactive) | > 100 µM (inactive) | > 100 µM (inactive) | > 100 µM (inactive) | > 100 µM (inactive) | > 100 µM (inactive) | > 100 µM (inactive) | > 100 µM (inactive) | > 100 µM (inactive) | > 100 µM (inactive) | > 100 µM (inactive) | > 100 µM (inactive) | > 100 µM (inactive) | – | –
2 | O=c1ccn(C2OC(CN(O)CCC3C(CO)OC(n4ccc(=O)[nH]c4=O)C3O)C(O)C2O)c(=O)[nH]1 (stereo unspecified) | > 100 µM (inactive) | > 100 µM (inactive) | > 100 µM (inactive) | > 100 µM (inactive) | > 100 µM (inactive) | > 100 µM (inactive) | > 100 µM (inactive) | > 100 µM (inactive) | > 100 µM (inactive) | > 100 µM (inactive) | > 100 µM (inactive) | > 100 µM (inactive) | > 100 µM (inactive) | > 100 µM (inactive) | > 100 µM (inactive) | > 100 µM (inactive) | > 100 µM (inactive) | > 100 µM (inactive) | –
3 | COc1ccccc1-c1cc(=O)c2ccccc2n1C1CC1 | 2.37 µM (inactive) | 3.54 µM (inactive) | 4.4 µM (inactive) | 4.86 µM (inactive) | 3.99 µM (inactive) | 1.75 µM (inactive) | 5.3 µM (inactive) | 1.78 µM (inactive) | 4.43 µM (inactive) | 3.5 µM (inactive) | 2.69 µM (inactive) | – | 1.57 µM (inactive) | 2 µM (inactive) | 4.52 µM (inactive) | 1.84 µM (inactive) | 3.49 µM (inactive) | – | 2.95 µM (inactive)
4 | C/C(=N\NC(=S)N1CCOCC1)c1nc2cccnc2[nH]1 | 67 µM (inactive) | 21.6 µM (inactive) | 68.2 µM (inactive) | 21.9 µM (inactive) | > 10 µM (inactive) | 31 µM (inactive) | 39.2 µM (inactive) | 14.1 µM (inactive) | 47.1 µM (inactive) | 39.9 µM (inactive) | 17.9 µM (inactive) | 11.2 µM (inactive) | 36.9 µM (inactive) | 23.8 µM (inactive) | 27.6 µM (inactive) | – | 66.8 µM (inactive) | 18.2 µM (inactive) | 49.5 µM (inactive)
5 | C[N+]1(C)CCC(C#N)(c2ccccc2)CC1 | > 100 µM (inactive) | > 100 µM (inactive) | > 100 µM (inactive) | > 100 µM (inactive) | > 100 µM (inactive) | – | > 100 µM (inactive) | > 100 µM (inactive) | > 100 µM (inactive) | > 100 µM (inactive) | – | – | > 100 µM (inactive) | > 100 µM (inactive) | > 100 µM (inactive) | > 100 µM (inactive) | > 100 µM (inactive) | 35.4 µM (inactive) | > 100 µM (inactive)
6 | CNc1ncccc1Nc1cc(=O)n2c3cccnc3n(C)c2c1 | > 100 µM (inactive) | 21.8 µM (inactive) | > 100 µM (inactive) | 40.9 µM (inactive) | > 100 µM (inactive) | > 100 µM (inactive) | – | – | 34.1 µM (inactive) | > 100 µM (inactive) | – | > 100 µM (inactive) | > 100 µM (inactive) | 93.5 µM (inactive) | > 100 µM (inactive) | 20.6 µM (inactive) | 94.6 µM (inactive) | 24.9 µM (inactive) | > 100 µM (inactive)
7 | O=C(NCCC1CN(C(=O)OCc2ccccc2)c2ccccc21)OCc1ccccc1 (stereo unspecified) | > 100 µM (inactive) | > 100 µM (inactive) | > 100 µM (inactive) | > 100 µM (inactive) | > 100 µM (inactive) | > 100 µM (inactive) | > 100 µM (inactive) | > 100 µM (inactive) | > 100 µM (inactive) | > 100 µM (inactive) | > 100 µM (inactive) | > 100 µM (inactive) | > 100 µM (inactive) | > 100 µM (inactive) | > 100 µM (inactive) | > 100 µM (inactive) | > 100 µM (inactive) | > 100 µM (inactive) | –
8 | O=c1nc2ccc3sc4ccccc4c(=O)c3n2c(=O)[nH]1 | > 100 µM (inactive) | > 100 µM (inactive) | – | > 100 µM (inactive) | > 100 µM (inactive) | > 100 µM (inactive) | 19.4 µM (inactive) | – | > 100 µM (inactive) | > 100 µM (inactive) | – | – | > 100 µM (inactive) | > 100 µM (inactive) | > 100 µM (inactive) | > 100 µM (inactive) | > 100 µM (inactive) | > 100 µM (inactive) | > 100 µM (inactive)
9 | CN1CCN(c2n[nH]c(=O)c3c2nnn3Cc2ccccc2)CC1 | > 100 µM (inactive) | > 100 µM (inactive) | > 100 µM (inactive) | > 100 µM (inactive) | > 100 µM (inactive) | > 100 µM (inactive) | – | 17.2 µM (inactive) | – | > 100 µM (inactive) | > 100 µM (inactive) | 41.5 µM (inactive) | > 100 µM (inactive) | > 100 µM (inactive) | > 100 µM (inactive) | 86.7 µM (inactive) | > 100 µM (inactive) | > 100 µM (inactive) | > 100 µM (inactive)
10 | COc1ccc(C(=O)N(C(=O)N2CCN(c3ccccc3)CC2)S(=O)(=O)c2ccccc2)cc1 | 31.6 µM (inactive) | 18.1 µM (inactive) | 19.7 µM (inactive) | 24.7 µM (inactive) | 29.9 µM (inactive) | 37.8 µM (inactive) | 25.1 µM (inactive) | 25.4 µM (inactive) | – | 27.2 µM (inactive) | 18.5 µM (inactive) | 33.3 µM (inactive) | 17.9 µM (inactive) | 31.9 µM (inactive) | 14.5 µM (inactive) | – | 20.3 µM (inactive) | 32.7 µM (inactive) | 18.8 µM (inactive)
11 | Cc1ccsc1/C=N/Nc1ncccn1 | 32.4 µM (inactive) | > 100 µM (inactive) | > 100 µM (inactive) | > 100 µM (inactive) | > 100 µM (inactive) | > 100 µM (inactive) | > 100 µM (inactive) | > 100 µM (inactive) | > 100 µM (inactive) | > 100 µM (inactive) | > 100 µM (inactive) | > 100 µM (inactive) | > 100 µM (inactive) | > 100 µM (inactive) | > 100 µM (inactive) | > 100 µM (inactive) | > 100 µM (inactive) | > 100 µM (inactive) | –
12 | O=C(/C=C/c1ccc(Cl)c(Cl)c1)CCN1CCN(CCC(=O)/C=C/c2ccc(Cl)c(Cl)c2)CC1 | 12.5 µM (inactive) | 13.9 µM (inactive) | 17.8 µM (inactive) | – | 6.9 µM (inactive) | 23.6 µM (inactive) | – | 22.8 µM (inactive) | 17 µM (inactive) | 23.8 µM (inactive) | 26.7 µM (inactive) | 24.1 µM (inactive) | 21.8 µM (inactive) | 19.7 µM (inactive) | 19.3 µM (inactive) | 20.2 µM (inactive) | 15.6 µM (inactive) | 31.9 µM (inactive) | 12.3 µM (inactive)
13 | C/C(=N/NC(=S)Nc1cccc(Cl)c1)c1cccc(/C(C)=N\NC(=S)Nc2cccc(Cl)c2)n1 | 3.52 µM (inactive) | 3.13 µM (inactive) | 1.62 µM (inactive) | 19.4 µM (inactive) | 0.893 µM (active) | 0.379 µM (active) | > 23.8 µM (inactive) | 3.65 µM (inactive) | 2.03 µM (inactive) | – | 3.73 µM (inactive) | 0.94 µM (active) | 1.35 µM (inactive) | 1.77 µM (inactive) | 2.03 µM (inactive) | 2.38 µM (inactive) | 2.86 µM (inactive) | 2.58 µM (inactive) | 0.828 µM (active)
14 | CC(=O)CC(=O)CCC(=O)Nc1cccc(C(F)(F)F)c1 | > 100 µM (inactive) | > 100 µM (inactive) | > 100 µM (inactive) | > 100 µM (inactive) | > 100 µM (inactive) | > 100 µM (inactive) | – | > 100 µM (inactive) | > 100 µM (inactive) | – | > 100 µM (inactive) | – | > 100 µM (inactive) | > 100 µM (inactive) | > 100 µM (inactive) | – | > 100 µM (inactive) | – | –
15 | O=CC12CCCN1CCC2 | – | > 100 µM (inactive) | > 100 µM (inactive) | > 100 µM (inactive) | > 100 µM (inactive) | > 100 µM (inactive) | – | – | > 100 µM (inactive) | > 100 µM (inactive) | > 100 µM (inactive) | > 100 µM (inactive) | > 100 µM (inactive) | > 100 µM (inactive) | > 100 µM (inactive) | > 100 µM (inactive) | > 100 µM (inactive) | – | > 100 µM (inactive)
16 | N[C@H]1CCC[C@@H](O)C1O (stereo partly specified) | > 100 µM (inactive) | > 100 µM (inactive) | > 100 µM (inactive) | – | > 100 µM (inactive) | > 100 µM (inactive) | > 100 µM (inactive) | – | – | > 100 µM (inactive) | > 100 µM (inactive) | – | – | > 100 µM (inactive) | > 100 µM (inactive) | – | > 100 µM (inactive) | > 100 µM (inactive) | > 100 µM (inactive)
17 | OCCNc1ncnc2[nH]cnc12 | > 100 µM (inactive) | > 100 µM (inactive) | > 100 µM (inactive) | > 100 µM (inactive) | > 100 µM (inactive) | > 100 µM (inactive) | > 100 µM (inactive) | > 100 µM (inactive) | > 100 µM (inactive) | > 100 µM (inactive) | > 100 µM (inactive) | > 100 µM (inactive) | > 100 µM (inactive) | > 100 µM (inactive) | > 100 µM (inactive) | > 100 µM (inactive) | > 100 µM (inactive) | 0.296 µM (active) | –
